Data as given in article PMC11183114, “Structural basis of S-adenosylmethionine-dependent allosteric transition from active to inactive states in methylenetetrahydrofolate reductase” (Nature Communications, 2024).
Where a chain is given by its changes, count along the chain named. Read-outs that look alike come from different tables or passages of the source.

Columns and labels:
[1] = biological target: T1, methylenetetrahydrofolate reductase (cMTHFR) (Thermochaetoides thermophila, UniProt G0S5U9); test: UV-Vis titration (FAD absorbance quench at […] nm, Hill fit, coefficient […]); […] also inhibits NADPH-menadione oxidoreductase activity by […]; assay type: binding
T1 construct: gene CTHT_0033700; cMTHFR^wt
T1 sequence (G0S5U9 1-614): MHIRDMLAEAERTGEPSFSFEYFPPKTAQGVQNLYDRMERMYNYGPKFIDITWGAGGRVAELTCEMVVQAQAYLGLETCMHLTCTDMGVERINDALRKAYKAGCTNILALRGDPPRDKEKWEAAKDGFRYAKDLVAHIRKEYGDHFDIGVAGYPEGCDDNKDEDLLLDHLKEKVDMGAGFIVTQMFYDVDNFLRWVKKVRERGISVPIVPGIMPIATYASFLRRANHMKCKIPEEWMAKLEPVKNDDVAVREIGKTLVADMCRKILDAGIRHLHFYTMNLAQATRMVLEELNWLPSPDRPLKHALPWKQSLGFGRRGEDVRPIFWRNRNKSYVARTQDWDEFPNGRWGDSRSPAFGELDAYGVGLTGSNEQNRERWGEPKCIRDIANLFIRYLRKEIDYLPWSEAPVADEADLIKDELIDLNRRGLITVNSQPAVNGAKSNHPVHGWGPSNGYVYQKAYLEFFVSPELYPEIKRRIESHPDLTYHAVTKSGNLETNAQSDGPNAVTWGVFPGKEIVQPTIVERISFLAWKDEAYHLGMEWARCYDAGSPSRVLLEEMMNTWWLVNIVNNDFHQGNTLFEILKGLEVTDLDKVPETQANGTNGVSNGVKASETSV

[2] = biological target: T2, methylenetetrahydrofolate reductase (cMTHFR) (Thermochaetoides thermophila, UniProt G0S5U9, R315A); test: X-ray crystal structure, […] Å (T-state); assay type: binding; parameters: gene CTHT_0033700; cMTHFR^R315A, homodimer; two AdoMet per regulatory domain
T2 sequence (G0S5U9 1-614 R315A): T1 sequence (G0S5U9 1-614) with R315A
Description: Unexpectedly, two molecules of AdoMet were found

[3] = biological target: T3, methylenetetrahydrofolate reductase (cMTHFR) (Thermochaetoides thermophila, UniProt G0S5U9, E21Q/L393M/V516F); test: X-ray crystal structure, […] Å (R-state); assay type: binding
T3 construct: gene CTHT_0033700; cMTHFR^E21Q, L393M, V516F, surface lysines reductively methylated
T3 sequence (G0S5U9 1-614 E21Q/L393M/V516F): T1 sequence (G0S5U9 1-614) with E21Q, L393M, V516F

[4] = biological target: T2, methylenetetrahydrofolate reductase (cMTHFR); test: X-ray crystal structure, […] Å (T-state); assay type: binding; parameters: gene CTHT_0033700; cMTHFR^R315A
[5] = biological target: T1, methylenetetrahydrofolate reductase (cMTHFR); test: NADH-menadione oxidoreductase assay, purified enzyme ([…] NADH); assay type: biochemical
[6] = biological target: T1, methylenetetrahydrofolate reductase (cMTHFR); test: NADPH-menadione oxidoreductase assay, purified enzyme ([…] NADPH); assay type: biochemical

Q: `C[S@@+](CC[C@H](N)C(=O)[O-])C[C@H]1O[C@@H](n2cnc3c(N)ncnc32)[C@H](O)[C@@H]1O` [AdoMet] was tested. Which Kd [1] did it give?
A: ~18.8 µM

Q: And the “X-ray crystal structure, 2.8 Å (T-state)” value [2]?
A: The regulatory domain was found to bind AdoMet, as expected for the T-state. Unexpectedly, two molecules of AdoMet were found

Q: Which results are given for `Cc1cc2nc3c(=O)[nH]c(=O)nc-3n(C[C@H](O)[C@H](O)[C@H](O)COP(=O)(O)OP(=O)(O)OC[C@H]3O[C@@H](n4cnc5c(N)ncnc54)[C@H](O)[C@@H]3O)c2cc1C` [FAD]?
A: X-ray crystal structure, 3.4 Å (R-state) [3]: Electron density for FAD was observed in every catalytic active site.; X-ray crystal structure, 2.8 Å (T-state) [4]: the si-face of FAD is occluded by Tyr361 on the C-terminal region of the linker, which forms a π-stacking interaction

Q: For `NC(=O)C1=CN([C@@H]2O[C@H](COP(=O)(O)OP(=O)(O)OC[C@H]3O[C@@H](n4cnc5c(N)ncnc54)[C@H](O)[C@@H]3O)[C@@H](O)[C@H]2O)C=CC1` [NADH], which “NADH-menadione oxidoreductase assay, purified enzyme (100 μM NADH)” value [5] is on record?
A: 44 µM/min

Q: `NC(=O)C1=CN([C@@H]2O[C@H](COP(=O)(O)OP(=O)(O)OC[C@H]3O[C@@H](n4cnc5c(N)ncnc54)[C@H](OP(=O)(O)O)[C@@H]3O)[C@@H](O)[C@H]2O)C=CC1` [NADPH] was tested. Which “NADPH-menadione oxidoreductase assay, purified enzyme (100 μM NADPH)” value [6] did it give?
A: 120 µM/min
